One experiment concerns the target D2 receptor (Homo sapiens, UniProt P14416). Description: [3H]Thymidine uptake assay for D2 intrinsic activity. Type of experiment: cell-based. Conditions: Table 1; test compound 1 μM; 1 μM Quinpirole = 100% intrinsic activity.
Chain of D2 receptor (P14416 whole entry): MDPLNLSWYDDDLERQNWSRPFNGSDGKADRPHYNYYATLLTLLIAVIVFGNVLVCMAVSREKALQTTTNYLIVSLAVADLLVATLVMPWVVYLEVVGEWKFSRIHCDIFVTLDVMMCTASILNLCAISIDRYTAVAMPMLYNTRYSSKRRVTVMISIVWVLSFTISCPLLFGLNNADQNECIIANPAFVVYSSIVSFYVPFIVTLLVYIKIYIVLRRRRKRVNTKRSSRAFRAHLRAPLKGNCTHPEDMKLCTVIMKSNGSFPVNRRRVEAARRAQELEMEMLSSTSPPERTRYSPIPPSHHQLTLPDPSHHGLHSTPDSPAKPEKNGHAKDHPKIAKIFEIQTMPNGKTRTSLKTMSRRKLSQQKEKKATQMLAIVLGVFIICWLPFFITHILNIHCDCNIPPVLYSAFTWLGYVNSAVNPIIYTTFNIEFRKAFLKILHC
For the molecule `O=c1[nH]c2nc(OCCCCN3CCN(c4cccc5ccccc45)CC3)ccc2cc1CC(F)(F)F` [Example D11, 7-[4-(4-Naphthalen-1-yl-piperazin-1-yl)-butoxy]-3-(2,2,2-trifluoro-ethyl)-1H-[1,8]naphthyridin-2-one], the Emax at 1 µM came out at 30%. Still for that read-out and setting: in the case of `O=c1ccc2ccc(OCCCN3CCN(c4cccc(Cl)c4Cl)CC3)nc2[nH]1` [Example C1, 7-{3-[4-(2,3-Dichloro-phenyl)-piperazin-1-yl]-propoxy}-1H-[1,8]naphthyridin-2-one] it was 43%. For `O=C1CCc2cc(Br)c(OCCCCN3CCN(c4cccc5ccccc45)CC3)nc2N1` [Example E8, 6-Bromo-7-[4-(4-naphthalen-1-yl-piperazin-1-yl)-butoxy]-3,4-dihydro-1H-[1,8]naphthyridin-2-one], the maximal response (Emax) at 1 µM was 26%. `Cn1c(=O)ccc2ccc(OCCCCN3CCN(c4cccc5ccccc45)CC3)nc21` [Example B68, 1-Methyl-7-[4-(4-naphthalen-1-yl-piperazin-1-yl)-butoxy]-1H-[1,8]naphthyridin-2-one] registered an Emax at 1 µM of 17%. Still for that read-out and setting: in the case of `Cc1cc(OCCCCN2CCN(c3cccc(Cl)c3Cl)CC2)nc2c1CCC(=O)N2` [Example E9, 7-{4-[4-(2,3-Dichloro-phenyl)-piperazin-1-yl]-butoxy}-5-methyl-3,4-dihydro-1H-[1,8]naphthyridin-2-one] it was 34%.

In the case of `Cc1nc(OCCCCN2CCN(c3cccc(C(C)C)n3)CC2)nc2[nH]c(=O)ccc12` [Example H6, 2-{4-[4-(6-Isopropyl-pyridin-2-yl)-piperazin-1-yl]-butoxy}-4-methyl-8H-pyrido[2,3-d]pyrimidin-7-one], the Emax at 1 µM turned out to be 42%. The same measure, in the same setting: in the case of `O=c1ccc2ccc(OCCCCN3CCN(c4cccc5c(F)cccc45)CC3)nc2[nH]1` [Example B51, 7-{4-[4-(5-Fluoro-naphthalen-1-yl)-piperazin-1-yl]-butoxy}-1H-[1,8]naphthyridin-2-one] it was 36%; in that of `O=C1CCc2cnc(OCCCCN3CCN(c4cccc5ccccc45)CC3)c(Cl)c2N1` [Example I10, 8-Chloro-7-[4-(4-naphthalen-1-yl-piperazin-1-yl)-butoxy]-3,4-dihydro-1H-[1,6]naphthyridin-2-one], 21%; in that of `CC1(C)OC(=O)Nc2cc(CCCCCN3CCN(c4cccc(Cl)c4Cl)CC3)ncc21` [Example I19, 7-{5-[4-(2,3-Dichloro-phenyl)-piperazin-1-yl]-pentyl}-4,4-dimethyl-1,4-dihydro-pyrido[4,3-d][1,3]oxazin-2-one], 22%. On the same count and under the same terms, the same measure for `O=C1CCc2ccc(CCCCCN3CCN(c4ccc(F)cc4Cl)CC3)nc2N1` [Example C14, 7-{5-[4-(2-Chloro-4-fluoro-phenyl)-piperazin-1-yl]-pentyl}-3,4-dihydro-1H-[1,8]naphthyridin-2-one]: 10%; for `Cc1cc(OCCCCN2CCN(c3cccc4c3CCCC4)CC2)nc2c1CCC(=O)N2` [Example E11, 5-Methyl-7-{4-[4-(5,6,7,8-tetrahydro-naphthalen-1-yl)-piperazin-1-yl]-butoxy}-3,4-dihydro-1H-[1,8]naphthyridin-2-one]: 19%; for `Cc1cc(N2CCN(CCCCOc3ccc4c(n3)NC(=O)CC4)CC2)c(Cl)cc1F` [Example A13, 7-{4-[4-(2-Chloro-4-fluoro-5-methyl-phenyl)-piperazin-1-yl]-butoxy}-3,4-dihydro-1H-[1,8]naphthyridin-2-one]: 21%.

The molecule `CC(=O)c1c(Cl)cccc1N1CCN(CCCCOc2ccc3ccc(=O)[nH]c3n2)CC1` [Example B3, 7-{4-[4-(2-Acetyl-3-chloro-phenyl)-piperazin-1-yl]-butoxy}-1H-[1,8]naphthyridin-2-one] showed a maximal response (Emax) at 1 µM of 8%.

As for `O=c1ccc2ccc(OCCCCN3CCN(c4cccc5c4CCCC5(F)F)CC3)nc2[nH]1` [Example B43, 7-{4-[4-(5,5-Difluoro-5 6,7,8-tetrahydro-naphthalen-1-yl)-piperazin-1-yl]-butoxy}-1H-[1,8]naphthyridin-2-one], the maximal response (Emax) at 1 µM was determined as 18%. Still for that read-out and setting: in the case of `CC(C)Oc1ccccc1N1CCN(CCCCOc2ccc3c(n2)NC(=O)CC3(C)C)CC1` [Example D25, 7-{4-[4-(2-Isopropoxy-phenyl)-piperazin-1-yl]-butoxy}-4,4-dimethyl-3,4-dihydro-1H-[1,8]naphthyridin-2-one] it was 31%.

In the case of `Cc1c(F)ccc(N2CCN(CCCCCc3ccc4c(n3)NC(=O)CC4)CC2)c1Cl` [Example C15, 7-{5-[4-(2-Chloro-4-fluoro-3-methyl-phenyl)-piperazin-1-yl]-pentyl}-3,4-dihydro-1H-[1,8]naphthyridin-2-one], the Emax at 1 µM was 8%. The same measure, in the same setting: the same measure for `O=c1ccc2ccc(OCCCCN3CCN(c4ccc(F)c(Cl)c4Cl)CC3)nc2[nH]1` [Example B24, 7-{4-[4-(2,3-Dichloro-4-fluoro-phenyl)-piperazin-1-yl]-butoxy}-1H-[1,8]naphthyridin-2-one]: 10%; for `O=C1CCc2cc(F)c(OCCCCN3CCN(c4cccc5ccccc45)CC3)nc2N1` [Example E4, 6-Fluoro-7-[4-(4-naphthalen-1-yl-piperazin-1-yl)-butoxy]-3,4-dihydro-1H-[1,8]naphthyridin-2-one]: 38%; for `O=C1CCc2cc(F)c(OCCCCN3CCN(c4cccc5c4CCC5)CC3)nc2N1` [Example E5, 6-Fluoro-7-[4-(4-indan-4-yl-piperazin-1-yl)-butoxy]-3,4-dihydro-1H-[1,8]naphthyridin-2-one]: 21%.

The experiment is the same for the next values; noted with them: Table 2; test compound 1 μM; 1 μM Quinpirole = 100% intrinsic activity.
The molecule `CC1(C)CC(=O)Nc2nc(OCCCCN3CCN(c4cccc5ccc(=O)[nH]c45)CC3)ccc21` [Example C4′, 4,4-Dimethyl-7-{4-[4-(2-oxo-1,2-dihydro-quinolin-8-yl)-piperazin-1-yl]-butoxy}-3,4-dihydro-1H-[1,8]naphthyridin-2-one] had an Emax at 1 µM of 21%. The same measure, in the same setting: in the case of `O=c1ccc2ccc(OCCCCN3CCN(c4cccc5c4OCCCO5)CC3)nc2[nH]1` [Example B20′, 7-{4-[4-(3,4-Dihydro-2H-benzo[b][1,4]dioxepin-6-yl)-piperazin-1-yl]-butoxy}-1H-[1,8]naphthyridin-2-one] it was 16%; in that of `O=c1ccc2cnc(OCCCCN3CCN(c4cccc5c4OC(F)(F)O5)CC3)cc2[nH]1` [Example H9′, 7-{4-[4-(2,2-Difluoro-benzo[1,3]dioxol-4-yl)-piperazin-1-yl]-butoxy}-1H-[1,6]naphthyridin-2-one], 31%; in that of `O=C1CCc2ccc(OCCCCN3CCN(c4cccc5c4OCCCO5)CC3)nc2N1` [Example A17′, 7-{4-[4-(3,4-Dihydro-2H-benzo[b][1,4]dioxepin-6-yl)-piperazin-1-yl]-butoxy}-3,4-dihydro-1H-[1,8]naphthyridin-2-one], 15%. The same measure, in the same setting: the same measure for `O=C1CCc2cnc(OCCCCN3CCN(c4cccc5c4OCC5)CC3)cc2N1` [Example H2′, 7-{4-[4-(2,3-Dihydro-benzofuran-7-yl)-piperazin-1-yl]-butoxy}-3,4-dihydro-1H-[1,6]naphthyridin-2-one]: 15%; for `O=c1ccc2ccc(OCCCCN3CCN(c4cccc5sccc45)CC3)nc2[nH]1` [Example B25′, 7-[4-(4-Benzo[b]thiophen-4-yl-piperazin-1-yl)-butoxy]-1H-[1,8]naphthyridin-2-one]: 21%. On the same count and under the same terms, the same measure for `O=C1NCc2ccc(OCCCCN3CCN(c4cccc5c4OCCCO5)CC3)nc2N1` [Example E4′, 7-{4-[4-(3,4-Dihydro-2H-benzo[b][1,4]dioxepin-6-yl)-piperazin-1-yl]-butoxy}-3,4-dihydro-1H-pyrido[2,3-d]pyrimidin-2-one]: 26%; for `CN1CCCc2c1cccc2N1CCN(CCCCOc2ccc3c(n2)NC(=O)CC3)CC1` [Example A32′, 7-{4-[4-(1-Methyl-1,2,3,4-tetrahydro-quinolin-5-yl)-piperazin-1-yl]-butoxy}-3,4-dihydro-1H-[1,8]naphthyridin-2-one]: 27%. For the molecule `CN1CCCc2c1cccc2N1CCN(CCCCOc2ccc3ccc(=O)[nH]c3n2)CC1` [Example B28′, 7-{4-[4-(1-Methyl-1,2,3,4-tetrahydro-quinolin-5-yl)-piperazin-1-yl]-butoxy}-1H-[1,8]naphthyridin-2-one], the Emax at 1 µM was determined as 44%. On the same count and under the same terms, the same measure for `CC1(C)C=Cc2cccc(N3CCN(CCCCOc4ccc5ccc(=O)[nH]c5n4)CC3)c2O1` [Example B2′, 7-{4-[4-(2,2-Dimethyl-2H-chromen-8-yl)-piperazin-1-yl]-butoxy}-1H-[1,8]naphthyridin-2-one]: 33%; for `O=c1ccc2cnc(OCCCCN3CCN(c4cccc5c4OCCO5)CC3)nc2[nH]1` [Example G1′, 2-{4-[4-(2,3-Dihydro-benzo[1,4]dioxin-5-yl)-piperazin-1-yl]-butoxy}-8H-pyrido[2,3-d]pyrimidin-7-one]: 20%; for `O=c1ccc2ccc(OCCCCN3CCN(c4cccc5c4OC4(CCCC4)CC5)CC3)nc2[nH]1` [Example B7′, 7-{4-[4-(3,4-Dihydrospiro[chromene-2,1′-cyclopentan]-8-yl)-piperazin-1-yl]-butoxy}-1H-[1,8]naphthyridin-2-one]: 48%. Still for that read-out and setting: in the case of `O=c1ccc2ccc(OCCCCN3CCN(c4cccc5c4OC(F)(F)O5)CC3)nc2[nH]1` [Example B13′, 7-{4-[4-(2,2-Difluoro-benzo[1,3]dioxol-4-yl)-piperazin-1-yl]-butoxy}-1H-[1,8]naphthyridin-2-one] it was 33%; in that of `O=C1CCc2ccc(OCCCCN3CCN(c4cccc5nsnc45)CC3)nc2N1` [Example A30′, 7-[4-(4-Benzo[1,2,5]thiadiazol-4-yl-piperazin-1-yl)-butoxy]-3,4-dihydro-1H-[1,8]naphthyridin-2-one], 41%. `O=c1ccc2ccc(OCCCCN3CCN(c4cccc5nccnc45)CC3)nc2[nH]1` [Example B23′, 7-[4-(4-Quinoxalin-5-yl-piperazin-1-yl)-butoxy]-1H-[1,8]naphthyridin-2-one] registered an Emax at 1 µM of 21%.

These data come from patent US7160888B2, “[1,8]naphthyridin-2-ones and related compounds for the treatment of schizophrenia” (Warner Lambert Company LLC, priority 2003, dated 2007).
